Test results published in patent publication US20170119727A1, “A THERAPEUTIC PROTOCOL FOR TREATING OVARIAN CANCER” (Bionomics Limited, priority 2014, published 2017).

Key:
[1] = test system: Human umbilical vein endothelial cells (HUVECs), tumour type activated endothelial cells; experiment: Proliferation assay - activated endothelium (MTT); assay type: cell-based; conditions: for potency against activated (tumor) versus quiescent (normal) endothelial cells: activated compared with quiescent endothelial cells; for IC50: Homo sapiens, HUVEC, tumour type activated endothelial cells (HUVECs), 48 hrs, read-out: HUBECs Tum: IC50
Procedure: Proliferation Assay—Activated Endothelium:
(§1) Human umbilical vein endothelial cells (CC-2519, Clonetics) were plated at 2500 cells/well in EGM2 (CC-3162, Clonetics) in a 96 well plate in triplicate. Cells were cultured overnight at 37° C. 5% CO2. Medium was subsequently replaced with fresh medium including the compound or negative control. Cells were cultured for a period of 48 hrs. An MTT assay was performed to measure changes in cell numbers. Briefly, 20 μl of MTT reagent was added to cells containing 100 μl of EGM2 and incubated at 37° C. for 2 hours. Absorbance was measured at 492 nm.

MCF-7 = experiment: Growth inhibition of cancer cell line (Sulforhodamine B or Systmex cell counting assay); assay type: cell-based; conditions: Homo sapiens, MCF7, concentration required to inhibit net cell growth by 50%
[2] = test system: Human umbilical vein endothelial cells (HUVECs), normal quiescent type endothelial cells; experiment: Proliferation assay - quiescent endothelium (MTT); assay type: cell-based; conditions: HUVEC, 48 hrs, read-out: HUBECs Norm: IC50
Procedure: Proliferation Assay—Quiescent Endothelium:
as §1, with “15000” for “2500”, “EBM2 (CC-3156, Clonetics)+0.5% FBS (CC-4101A, Clonetics)+GA-1000 (CC-4381A,” for “EGM2 (CC-3162,”, “EBM2+0.5% FBS” for “EGM2”

tubulin = experiment: Tubulin polymerization inhibition; assay type: biochemical
recurrent ovarian cancer = experiment: Phase I clinical trial: objective response (CA125 or RECIST); assay type: in vivo, female ovarian cancer subjects (patients); conditions: combination with carboplatin and gemcitabine
Source text: (§2) A standard 3+3 Phase I design was used to determine the recommended dose of compound Example 2 with combination partners (b) and (c). In addition, this design also facilitated the determination of secondary endpoints including progression-free survival (PFS) and adverse event rates. Further correlative endpoints that measure the effect of the drug combination on compound Example 2 pharmacokinetics (PK) were also captured in this trial design.
(§3) The patient cohort selected for this Phase I clinical trial were female ovarian cancer subjects with a PFS interval of ≧4 months after first or second line platinum-based chemotherapy.
(§4) The dosing regime is outlined in FIG. 4. This protocol included compound Example 2 escalation at 12 or 16 mg/m^2 IV on days 2 and 9, carboplatin AUC4 on day 1, gemcitabine escalation 800 and 1000 mg/m^2 days 1 and 8. Treatment proceeded across a 21 day cycle for a maximum of 6 cycles. Treatment was followed by single agent maintenance with compound Example 2 at 16 mg/m^2 for a maximum of 6 additional cycles.
(§5) The key outcomes of this trial include the identification of the maximum tolerated dose (MTD) of compound Example 2 and combination partners (b) and (c), dose limiting toxicities and patient response measured according to CA125 levels or RECIST. Additional plasma biomarker studies that measure concentrations of ferritin, interleukin-8, interleukin-16 and macrophage inflammatory protein-1β provide correlative data relating to the PK of compound Example 2.

[3] = test system: cisplatin resistant A2780Cis solid orthotopic tumours; experiment: Tumour growth inhibition, combination with carboplatin and gemcitabine; assay type: in vivo, Balb/c nu/nu mice; conditions: Example 2 24 mg/kg + carboplatin 50 mg/kg + gemcitabine 12.5 mg/kg i.v.; triplet compared to carboplatin/gemcitabine doublet; up to 21 days
Procedure: (a) Example 2 Treatment in Combination with Carboplatin (Combination Partner (b)) and Gemcitabine (Combination Partner (c)).
Balb/c nu/nu mice bearing cisplatin resistant A2780Cis solid orthotopic tumours were treated with compound Example 2 at 24 mg/kg, carboplatin at 50 mg/kg and gemcitabine at 12.5 mg/kg. Animals were i.v. dosed with a single dose of carboplatin, two weekly doses of Example 2 and two weekly doses of gemcitabine. Each cycle of Example 2 and gemcitabine was dosing on days 1 and 8; and each cycle of carboplatin was dosing on day 1.
Tumour growth as well as animal health were monitored for up to 21 days post-day 1 of treatment.

[4] = test system: MDA-MB-231 solid orthotopic tumours; experiment: Tumour growth inhibition, single agent; assay type: in vivo, Balb/c nu/nu mice; conditions: Example 2 40 mg/kg i.v., two cycles; vs vehicle; significant from day 4 (p<0.001) through Day 70
Procedure: Balb/c nu/nu mice bearing MDA-MB-231 solid orthotopic tumours were treated with compound Example 2 at 40 mg/kg. Animals were i.v. dosed with a total of two cycles of Example 2 treatment. Each cycle was dosing on […] followed by a three week no-dosing period. Tumour growth represented as a ratio to initial tumour volume is shown over a total of 72-days.
Tumour growth as well as animal health were monitored for up to 72 days post-day 1 of treatment. […] Significant differences in tumour growth between Example 2 treated (n=64) and vehicle treated (n=20) animals were observed as early as day 4 (p<0.001; unpaired t-test; Prism® analysis) through to Day 70.

[5] = Phase I clinical trial: dose limiting toxicities, adverse events, recommended dose; assay type: in vivo, female ovarian cancer subjects (patients)
Source text: as §2, §3, §4, §5

[6] = Dose level 1 (n = 6), combination with carboplatin and gemcitabine, all cycles
[7] = Dose level 2a (n = 3), combination with carboplatin and gemcitabine, all cycles
[8] = Dose level 2b (n = 60 as printed), combination with carboplatin and gemcitabine, all cycles

Question: With COc1ccc(/C=C\c2cc(OC)c(OC)c(OC)c2)cc1O [Combretastatin A4] as the compound, how does the “potency against activated (tumor) versus quiescent (normal) endothelial cells” value [1] read?
Answer: The value was “equally potent against quiescent and activated endothelial cells”.

Question: What does the source list for COc1ccc(/C=C\c2cc(OC)c(OC)c(OC)c2)cc1O [Comparator A]?
Answer: IC50 (MCF-7): 0.005 µM; IC50 [1]: 0.001 to 0.01 µM; IC50 [2]: 0.001 to 0.01 µM

Question: With COc1ccc(/C=C\c2cc(OC)c(OC)c(OC)c2)cc1OP(=O)(O)O [Comparator B] as the compound, how does the IC50 (MCF-7) read?
Answer: The IC50 was 0.005 µM.

Question: And the IC50 [1]?
Answer: The IC50 was 0.001 to 0.01 µM.

Question: And the IC50 [2]?
Answer: The IC50 was 0.001 to 0.01 µM.

Question: Which IC50 (MCF-7) does the source give for COc1ccc2c(C(=O)c3cc(OC)c(OC)c(OC)c3)coc2c1 [Comparator C] here?
Answer: Its IC50 is 0.055 µM.

Question: And the IC50 [1]?
Answer: The IC50 was 0.01 to 0.1 µM.

Question: And the IC50 [2]?
Answer: Its IC50 is 0.01 to 0.1 µM.

Question: For COc1ccc2c(C(=O)c3cc(OC)c(OC)c(OC)c3)c(Br)oc2c1 [Comparator D], which IC50 (MCF-7) is on record?
Answer: The IC50 was 0.5 µM.

Question: What about the IC50 [1] of the same compound?
Answer: The IC50 was 0.1 to 1 µM.

Question: And the IC50 [2]?
Answer: The IC50 was 0.1 to 1 µM.

Question: For COc1cc(C(=O)c2c(C)oc3c(O)c(OC)ccc23)cc(OC)c1OC [Example 1, 2-Methyl-7-hydroxy-3-(3,4,5-trimethoxybenzoyl)-6-methoxybenzofuran], which IC50 (MCF-7) is on record?
Answer: Its IC50 is 0.002 µM.

Question: And the IC50 [1]?
Answer: Its IC50 is 0.0001 to 0.001 µM.

Question: And the “potency against activated (tumor) versus quiescent (normal) endothelial cells” value [1]?
Answer: Its value is “high potency towards tumor endothelial cells (activated) over normal endothelial cells (quiescent)”.

Question: What about the tubulin polymerization inhibition (tubulin) of the same compound?
Answer: The tubulin polymerization inhibition was “potent tubulin polymerization inhibitor”.

Question: What about the IC50 [2] of the same compound?
Answer: The IC50 was 0.01 to 0.1 µM.

Question: What does the source list for COc1cc(C(=O)c2c(C)oc3c(OP(=O)([O-])[O-])c(OC)ccc23)cc(OC)c1OC.[Na+].[Na+] [Example 2, Disodium 6-methoxy-2-methyl-3-(3,4,5-trimethoxybenzoyl)benzofuran-7-yl phosphate]?
Answer: Objective responses (CA125 or RECIST) % (recurrent ovarian cancer; Dose level 1, 6 accrued): 68%; Objective responses (CA125 or RECIST) N (recurrent ovarian cancer; Dose level 1, 6 accrued): 4; Objective responses (CA125 or RECIST) % (recurrent ovarian cancer; Dose level 2a, 3 accrued): 33%; Objective responses (CA125 or RECIST) N (recurrent ovarian cancer; Dose level 2a, 3 accrued): 1; Objective responses (CA125 or RECIST) % (recurrent ovarian cancer; Dose level 2b, 6 accrued): 83%; Objective responses (CA125 or RECIST) N (recurrent ovarian cancer; Dose level 2b, 6 accrued): 5; Objective responses (CA125 or RECIST) % (recurrent ovarian cancer; all dose levels, 15 accrued): 68%; Objective responses (CA125 or RECIST) N (recurrent ovarian cancer; all dose levels, 15 accrued): 10; Tumour growth (tumor volume) [3]: tumour growth inhibition; Tumour growth (ratio to initial tumour volume) [4]: tumour growth inhibition; Hypertension Gr 3 [5, 6]: 1; Neutropenia Gr 3 [5, 6]: 3; Neutropenia Gr 4 [5, 6]: 2; Number of DLTs ([5]; Dose level 1: Example 2 12 mg/m2 + carboplatin AUC4 + gemcitabine 800 mg/m2, 6 patients): 1; Hypersensitivity Gr 3 [5, 7]: 1; Neutropenia Gr 3 [5, 7]: 1; Neutropenia Gr 4 [5, 7]: 2; Thrombocytopenia Gr 4 [5, 7]: 2; Number of DLTs ([5]; Dose level 2a: Example 2 16 mg/m2 + carboplatin AUC4 + gemcitabine 800 mg/m2, 3 patients): 2; Anaemia Gr 3 [5, 8]: 1; Neutropenia Gr 3 [5, 8]: 5; Thrombocytopenia Gr 3 [5, 8]: 2; adverse events or dose limiting toxicities ([5]; Dose level 2b: Example 2 12 mg/m2 + carboplatin AUC4 + gemcitabine 1000 mg/m2): no adverse events or dose limiting toxicities were observed; Number of DLTs ([5]; Dose level 2b: Example 2 12 mg/m2 + carboplatin AUC4 + gemcitabine 1000 mg/m2, 6 patients): 0; safety and tolerability ([5]; combination with combination partners (b) carboplatin and (c) gemcitabine, subjects with recurrent ovarian cancer): safe and tolerable; recommended dose ([5]; with carboplatin AUC4 and gemcitabine 1000 mg/m^2 (dose level 2b)): 12 mg/m^2
